The results in this text go back to patent publication US10709735B2, “Immunotherapy against neuronal and brain tumors” (IMMATICS BIOTECHNOLOGIES GMBH, priority 2007, dated 2020).

The assay relates to CD8+ T cells. The experiment in a line: In vitro immunogenicity: priming of CD8+ T cells with peptide-MHC/anti-CD28 coated beads (aAPC), tetramer readout. Format: cell-based, human. To be noted: CD8+ T cells of healthy HLA-A*02+ donors, three stimulation cycles with high density beads; positive well: at least 1% specific tetramer+ among CD8+ T cells and at least 10x median of negative controls. The protocol: To perform in vitro stimulations by artificial antigen presenting cells (aAPC) loaded with peptide-MHC complex (pMHC) and anti-CD28 antibody, PBMCs (peripheral blood mononuclear cells) were isolated from fresh HLA-A*02+ buffy coats by using standard density gradient separation medium (PAA, Cölbe, Germany). Buffy coats were obtained from the Katharinenhospital Stuttgart. Isolated PBMCs were incubated overnight in T-cell medium (TCM) for human in vitro priming consisting of RPMI-Glutamax (Invitrogen, Karlsruhe, Germany) supplemented with 10% heat inactivated human AB serum (PAA, Cölbe, Germany), 100 U/ml Penicillin/100 μg/ml Streptomycin (Cambrex, Verviers, Belgium), 1 mM sodium pyruvate (CC Pro, Neustadt, Germany) and 20 μg/ml Gentamycin (Cambrex). CD8+ lymphocytes were isolated using the CD8+ MACS positive selection kit (Miltenyi, Bergisch Gladbach, Germany) according to the manufacturer's instructions. Obtained CD8+ T cells were incubated until use in TCM supplemented with 2.5 ng/ml IL-7 (PromoCell, Heidelberg, Germany) and 10 U/ml IL-2 (Chiron, Munich, Germany). Generation of pMHC/anti-CD28 coated beads, T-cell stimulations and readout was performed as described before (Walter et al., 2003) with minor modifications. Briefly, biotinylated recombinant HLA-A*0201 molecules lacking the transmembrane domain and biotinylated at the carboxy terminus of the heavy chain were produced following a method described by Altman et al., 1996). The purified costimulatory mouse IgG2a anti human CD28 Ab 9.3 (Jung et al., 1987) was chemically biotinylated using Sulfo-N-hydroxysuccinimidobiotin as recommended by the manufacturer (Perbio, Bonn, Germany). 5.60 μm large streptavidin coated polystyrene particles beads were used (Bangs Laboratories, Illinois/USA). pMHC was used as positive and negative controls were A*0201/MLA-001 (peptide […] from modified Melan-A/MART-1) and A*0201/DDX5-001 ([…] from DDX5), respectively.
800,000 beads/200 μl were coated in 96-well plates in the presence of 600 ng biotin anti-CD28 plus 200 ng relevant biotin-pMHC (high density beads) or 2 ng relevant plus 200 ng irrelevant (pMHC library) MHC (low density beads). Stimulations were initiated in 96-well plates by conincubating 1×10^6 CD8+ T cells with 2×10^5 washed coated beads in 200 μl TCM supplemented with 5 ng/ml IL-12 (PromoCell) for 3-4 days at 37° C. Half of the medium was then exchanged by fresh TCM supplemented with 80 U/ml IL-2 and incubating was continued for 3-4 days at 37° C. This stimulation cycle was performed for a total of three times. Finally, tetrameric analyses were performed with fluorescent MHC tetramers (produced as described by (Altman et al., 1996)) plus antibody CD8-FITC clone SK1 (BD, Heidelberg, Germany) on a FACSCalibur or a LSR II flow cytometer (BD). Peptide specific cells were calculated as percentage of total CD8+ T cells. Evaluation of tetrameric analysis was performed using the software FCS Express (De Novo Software). In vitro priming of specific tetramer+ CD8+ lymphocytes was detected by appropriate gating and by comparing to negative control stimulations.
Results shown have been obtained by stimulation of CD8+ cells with high density beads. As different human serum lots may highly affect the immunogenicity results, only assays in which one and the same serum lot was used, were evaluated together.

For the sequence “AIIDGVESV (listed as Homo sapiens) [PTP-003, PTPRZ1-derived tumor associated peptide, HLA A*02]”, the Immunogenicity detected result is reported as “Yes”.
Next, “ALTTLMHQL (listed as Homo sapiens) [PTP-001, PTPRZ1-derived tumor associated peptide, HLA A*0205]”: “Yes”; “FLLPDTDGL (listed as Homo sapiens) [PTP-004, PTPRZ1-derived tumor associated peptide, HLA A*02]”: “Yes”; “FLYKVILSL (listed as Homo sapiens) [PTP-002, PTPRZ1-derived tumor associated peptide, HLA A*02]”: “Yes”.
With “KVFAGIPTV (listed as Homo sapiens) [PTP-005, PTPRZ1-derived tumor associated peptide, HLA A*02]”, the Immunogenicity detected result is “Yes”.
As to “SLWAGVVVL (listed as Homo sapiens) [CHI-001, CHI3L2-derived tumor associated peptide, HLA A*02]”, the Immunogenicity detected result is “Yes”.
